PubChem BioAssay AID2060513 (Molecular Pharmacology Branch, DTP, NCI, 2025)
pIC50: −log10 of the molar value.

System: 299254-011-R-J1-PDC complex spheroids viability
Experiment: Anticancer human tumor 299254-011-R-J1-PDC patient-derived melanoma cell line growth inhibition [GQUAD]
Conditions: for pIC50: curve of first compound; for viability, T/C: stronger effect = lower value
Outline: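 Multi-cell-type spheroids of tumor cells with HUVEC and mesenchymal stem cells, treated with drug combinations. Concentrations descend in half-log steps from near clinical Cmax, or from 10 microM where Cmax is unknown; viability read-out.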
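Further: spheroids exposed to the agents for seven days before readout.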
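Wherever viability, T/C is given: percent viability relative to DMSO vehicle control wells = 100%.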

pIC50 (second compound 0.0316 µM): < 5.00
pIC50 (second compound 0.1 µM): < 5.00
pIC50 (second compound 0.316 µM): < 5.00
pIC50 (second compound 1 µM): < 5.00
pIC50 (second compound 3.16 µM): < 5.00
pIC50 (second compound 10 µM): 5.46
Compound: COc1ncnc(C2CC2)c1-c1ncc2cnn(Cc3ccc(-c4nc(C(F)(F)F)cn4C(C)C)cc3)c2n1 + Cc1cnc(CNC(=O)c2c(=O)c3ccc(N4CCCN(C)CC4)nc3n3c2sc2ccccc23)cn1
viability, T/C (second compound 0.0316 µM, first compound 0.0316 µM): 92.3%
viability, T/C (second compound 0.0316 µM, first compound 0.1 µM): 98.2%
viability, T/C (second compound 0.0316 µM, first compound 0.316 µM): 84.8%
viability, T/C (second compound 0.0316 µM, first compound 1 µM): 88.6%
viability, T/C (second compound 0.0316 µM, first compound 3.16 µM): 110%
viability, T/C (second compound 0.0316 µM, first compound 10 µM): 126%
viability, T/C (second compound 0.1 µM, first compound 0.0316 µM): 113%
viability, T/C (second compound 0.1 µM, first compound 0.1 µM): 97.9%
viability, T/C (second compound 0.1 µM, first compound 0.316 µM): 81.5%
viability, T/C (second compound 0.1 µM, first compound 1 µM): 97.8%
viability, T/C (second compound 0.1 µM, first compound 3.16 µM): 91.9%
viability, T/C (second compound 0.1 µM, first compound 10 µM): 108%
viability, T/C (second compound 0.316 µM, first compound 0.0316 µM): 87.3%
viability, T/C (second compound 0.316 µM, first compound 0.1 µM): 88.9%
viability, T/C (second compound 0.316 µM, first compound 0.316 µM): 120%
viability, T/C (second compound 0.316 µM, first compound 1 µM): 101%
viability, T/C (second compound 0.316 µM, first compound 3.16 µM): 93.2%
viability, T/C (second compound 0.316 µM, first compound 10 µM): 97.8%
viability, T/C (second compound 1 µM, first compound 0.0316 µM): 68.7%
viability, T/C (second compound 1 µM, first compound 0.1 µM): 102%
viability, T/C (second compound 1 µM, first compound 0.316 µM): 90.1%
viability, T/C (second compound 1 µM, first compound 1 µM): 88.1%
viability, T/C (second compound 1 µM, first compound 3.16 µM): 102%
viability, T/C (second compound 1 µM, first compound 10 µM): 76.8%
viability, T/C (second compound 3.16 µM, first compound 0.0316 µM): 87.4%
viability, T/C (second compound 3.16 µM, first compound 0.1 µM): 69.8%
viability, T/C (second compound 3.16 µM, first compound 0.316 µM): 76.4%
viability, T/C (second compound 3.16 µM, first compound 1 µM): 70.9%
viability, T/C (second compound 3.16 µM, first compound 3.16 µM): 77.3%
viability, T/C (second compound 3.16 µM, first compound 10 µM): 79%
viability, T/C (second compound 10 µM, first compound 0.0316 µM): 38.5%
viability, T/C (second compound 10 µM, first compound 0.1 µM): 24.7%
viability, T/C (second compound 10 µM, first compound 0.316 µM): 68%
viability, T/C (second compound 10 µM, first compound 1 µM): 77.7%
viability, T/C (second compound 10 µM, first compound 3.16 µM): 63.6%
viability, T/C (second compound 10 µM, first compound 10 µM): 0.43%
